According to patent US10752921B2, “Enzymes and methods for styrene synthesis” (Phytogene, Inc., priority 2012, dated 2020):
“Also recorded” adds a separate entry of the source.

How the values were obtained:
styrene production [1] = assay: Fermentation of E. coli with PAL2-FDC fusion with or without srpABC pump, Phe as substrate; format: cell-based; conditions: control contains only the fusion of PAL2 and FDC
Description: Some bacteria have developed multiple mechanisms to adapt unfavorable conditions. For example, Pseudomonas strains have about three strategies for addressing organic solvent toxicity, i.e. modified membrane structure, active efflux pumps, and enzymatic detoxification. Here, a recombinant E. coli host expressing an efflux pump (called solvent-resistant-pump) was produced. The pump, a member of the ABC-transporter family, is composed of three subunits, srpA, periplasmic linker; srpB, inner membrane transporter; and srpC, out-membrane channels. The full-length of the srpABC pump sequence (˜6 kb) was cloned from the genomic DNA of P. putida. The clone was first inserted to pENTR vector with Zeocin resistance and then to E. coli expression vector pCONA-2-DEST with Kanamycin resistance.
Finally, the pump was transformed to the E. coli strain BL21 (DE3) containing the fusion of PAL2 and FDC which is resistant to Ampicillin. After the test expression of 5 clones in flasks, one clone was chosen for further experiment with fermenter. Fifty milliliters of overnight culture were inoculated in 1.5 L LB medium containing appropriate antibiotics. When cells reach an OD600˜0.8, 5 mM of IPTG was added to the culture for induction. […] Samples from the overnight fermentation (˜16 hrs) were taken and analyzed by HPLC in coupling with an Acclaim RSLC C18 column and detected at 280 nm. […]

FDC1 [2] = biological target: T1, FDC1 (Saccharomyces cerevisiae, UniProt Q03034); assay: Substrate specificity of FDC1; format: biochemical; conditions: 0.2 mM substrate, 0.5 mg purified FDC1, 5 minutes at 30° C., pH 6.5
T1 construct: N-terminal 6xHis leader of vector pDEST17 (own knowledge of the vector); made in house; host or cells: E. coli BL21 (DE3)
T1 sequence (Q03034 1-503): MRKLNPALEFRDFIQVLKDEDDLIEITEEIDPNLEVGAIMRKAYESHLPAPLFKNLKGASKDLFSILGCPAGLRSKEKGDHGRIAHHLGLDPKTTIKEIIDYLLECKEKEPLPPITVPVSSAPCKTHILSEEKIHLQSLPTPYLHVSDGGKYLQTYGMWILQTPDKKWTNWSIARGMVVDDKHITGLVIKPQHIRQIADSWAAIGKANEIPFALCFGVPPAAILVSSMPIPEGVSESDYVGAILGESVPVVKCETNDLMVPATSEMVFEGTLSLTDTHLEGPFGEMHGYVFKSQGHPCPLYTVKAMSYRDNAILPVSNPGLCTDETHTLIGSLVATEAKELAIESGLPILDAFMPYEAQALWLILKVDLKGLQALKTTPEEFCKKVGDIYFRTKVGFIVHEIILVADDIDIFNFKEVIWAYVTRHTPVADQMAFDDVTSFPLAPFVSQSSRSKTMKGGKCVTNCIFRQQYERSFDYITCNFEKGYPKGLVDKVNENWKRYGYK
Protocol: The reaction mixtures were then incubated for 5 minutes at 30° C. After the reaction 1 mL of propanol was added to the reaction mixtures to solubilize styrene. The experimental negative control used the same conditions except the reaction mixture contained no substrate.

FDC1 [3] = biological target: T1, FDC1; assay: Effect of metal ions on FDC1 activity; format: biochemical; conditions: 10 mM metal ion, 1.4 mM tCA, purified FDC1, 5 minutes at 30° C.
Protocol: (§1) After the reaction, 1 mL of propanol was added to the reaction mixtures to solubilize styrene. The experimental control used the same conditions except the reaction mixture contained no metal ions. The experimental negative control used the same conditions except the reaction mixture contained no substrate.
as §1, with “ions or EDT A.” for “ions.”

styrene production [4] = assay: Styrene production by FDC1 mutants from tCA (colorimetric screening, confirmed by HPLC); format: cell-based; conditions: E. coli cells, tCA 1 g/L, 30° C. for 4 hours
Protocol: Saturation mutagenesis allows the change of one amino acid to 19 other alternative amino acid residues. […] The codon NNK has 32-fold degeneracy and encodes all 20 amino acids without rare codons. The QuikChange PCR products were examined by agarose gel electrophoresis and then 15 μl of PCR products were digested with 1 μl Dpnl (New England Biolabs) at 37° C. for 4 hours to remove the template plasmid. Aliquots of (2 μl) digestive products were transformed into BL21-Gold (DE3) competent cells (STRATAgene, CA) and inoculated on Luria-Bertani (LB) agar plates containing kanamycin. The quality of the library by DNA sequencing was confirmed. The library covers 90% of mutagenesis (17 mutants out of 19). To cover 100% (19 out of 19 mutant), we screened 150 mutants for each site.
The transformants (Example II.2) were inoculated in 96-well plates (NUNC, Roskilde, Denmark) containing 100 μl LB broth per well and incubated at 37° C., overnight. The cultures were then mixed with equal amount of 50% glycerol and stored at −80° C. as the master plate. An aliquot of 10 μl culture was inoculated in 2 ml deep-well plates (USA scientific) with 1 ml TB broth per well and incubated at 37° C. until the OD600 reached 1.0. The cultures were then induced by 0.2 mM IPTG and incubated at 18° C. for 20 hours with shaking at 250 rpm.
Cells were harvested and suspended with 0.25 ml PBS buffer at pH 7.0 and the substrate (tCA) was added at a final concentration of 1 g/L. The culture was incubated at 30° C. for 4 hours and the volatile product styrene was collected by using 96 well STRATA-X® reversed phase plate containing 10 mg polymer based resin (Phenomenex) on top of the culture plate (FIG. 19). To avoid styrene vapor diffusion, 96-square well silicone sealing mats with pre-slit were used between 96-well culture plate and 96 well STRATA-X® reversed phase plate. The product was collected by 200 μl propanol for each well and the amount of product was measured by colorimetric method.
Various chemicals were tested as an indicator for styrene detection, including NBP (4-nitrobenzyl-pyridine) as a preferred indicator. Styrene was mixed with cytochrome P450 BM-3 in 50 mM phosphate buffer pH 8.0. The styrene oxidation reaction was started by adding 0.2 mM NADPH, and the reaction mixture was incubated at room temperature for 5 minutes with shaking. The NBP solution was added to the mixture and incubated at room temperature for further 5 minutes with shaking which gives white precipitate. The tube or plate containing reaction mixtures were heated at 70° C. for 30 minutes and chilled on ice for 5 minutes. After adding Dimethylformamide (150 μl) and 25 μl of 1M K2CO3, the reaction mixture gave blue color that can be measured spectrophotometrically at 600 nm immediately. The […] of NBP reacts with the oxirane ring of styrene oxide to yield a blue chromophore a blue color that can be monitored spectrophotometrically at 600 nm.
The mutants showing higher activity were confirmed by HPLC using an ACQUITY UPLC BEH C18 column (1.7-μm, 2.1×50-mm, Waters, USA). The samples were resolved in 30% acetonitrile (A) with an increasing concentration gradient of acetonitrile (B) for 1 min, 95%; then to 1 min, 30%; at a flow rate of 1 ml/min. UV absorption was monitored at 254-, 280-, and 310-nm. The changed amino acid residues in the mutants showing the higher activity were confirmed by DNA sequence.

Molecule: ABC-transporter: solvent-resistant efflux pump srpABC cloned from P. putida, subunits srpA, srpB, srpC
- styrene production with ABC-transporter compared to control without (styrene production [1]): significantly increased; also recorded: enhanced nearly four times

Molecule: COc1ccc(C=CC(=O)O)cc1OC [3,4-dimethoxycinnamic acid]
- activity compared with that of tCA (relative activity) (FDC1 [2]): did not show any activity

Molecule: O=C(O)C=Cc1ccccc1O [2-hydroxycinnamic acid]
- activity compared with that of tCA (relative activity) (FDC1 [2]): did not show any activity

Molecule: COc1ccc(OC)c(C=CC(=O)O)c1 [2,5-dimethoxycinnamic acid]
- activity compared with that of tCA (relative activity) (FDC1 [2]): did not show any activity

Molecule: O=C(O)C=Cc1ccc(O)cc1 [4-hydroxycinnamic acid]
- activity compared with that of tCA (relative activity) (FDC1 [2]): 68%

Molecule: O=S(=O)([O-])[O-].[Zn+2] [Zn^2+, ZnSO4]
- effect of metal ions on FDC1 activity (FDC1 [3]): increased the activity of FDC1

Molecule: O=C(O)/C=C/c1ccccc1 [t-cinnamic acid, trans-cinnamic acid]
- activity compared with that of tCA (relative activity) (FDC1 [2]): 100%

Molecule: O=S(=O)([O-])[O-].[Mg+2] [Mg^2+, MgSO4]
- effect of metal ions on FDC1 activity (FDC1 [3]): increased the activity of FDC1

Molecule: Cc1ccccc1C=CC(=O)O [2-methylcinnamic acid]
- activity compared with that of tCA (relative activity) (FDC1 [2]): 35%

Molecule: [Ca+2].[Cl-].[Cl-] [Ca^2+, CaCl2]
- effect of metal ions on FDC1 activity (FDC1 [3]): increased the activity of FDC1

Molecule: COc1cc(/C=C/C(=O)O)ccc1O [ferulic acid]
- activity compared with that of tCA (relative activity) (FDC1 [2]): 57%

Molecule: [Cl][Fe]([Cl])[Cl] [Fe^3+, FeCl3]
- effect of metal ions on FDC1 activity (FDC1 [3]): increased the activity of FDC1

Molecule: O=C(O)C=Cc1cccc(O)c1 [3-hydroxycinnamic acid]
- activity compared with that of tCA (relative activity) (FDC1 [2]): did not show any activity

B1: K190L (protein, listed as Saccharomyces cerevisiae)
chain: MRKLNPALEFRDFIQVLKDEDDLIEITEEIDPNLEVGAIMRKAYESHLPAPLFKNLKGASKDLFSILGCPAGLRSKEKGDHGRIAHHLGLDPKTTIKEIIDYLLECKEKEPLPPITVPVSSAPCKTHILSEEKIHLQSLPTPYLHVSDGGKYLQTYGMWILQTPDKKWTNWSIARGMVVDDKHITGLVILPQHIRQIADSWAAIGKANEIPFALCFGVPPAAILVSSMPIPEGVSESDYVGAILGESVPVVKCETNDLMVPATSEMVFEGTLSLTDTHLEGPFGEMHGYVFKSQGHPCPLYTVKAMSYRDNAILPVSNPGLCTDETHTLIGSLVATEAKELAIESGLPILDAFMPYEAQALWLILKVDLKGLQALKTTPEEFCKKVGDIYFRTKVGFIVHEIILVADDIDIFNFKEVIWAYVTRHTPVADQMAFDDVTSFPLAPFVSQSSRSKTMKGGKCVTNCIFRQQYERSFDYITCNFEKGYPKGLVDKVNENWKRYGYK
- amount of styrene compared to that of wild type (in words) (styrene production [4]): significantly higher amount of styrene

B2: K190H (protein, listed as Saccharomyces cerevisiae)
chain: MRKLNPALEFRDFIQVLKDEDDLIEITEEIDPNLEVGAIMRKAYESHLPAPLFKNLKGASKDLFSILGCPAGLRSKEKGDHGRIAHHLGLDPKTTIKEIIDYLLECKEKEPLPPITVPVSSAPCKTHILSEEKIHLQSLPTPYLHVSDGGKYLQTYGMWILQTPDKKWTNWSIARGMVVDDKHITGLVIHPQHIRQIADSWAAIGKANEIPFALCFGVPPAAILVSSMPIPEGVSESDYVGAILGESVPVVKCETNDLMVPATSEMVFEGTLSLTDTHLEGPFGEMHGYVFKSQGHPCPLYTVKAMSYRDNAILPVSNPGLCTDETHTLIGSLVATEAKELAIESGLPILDAFMPYEAQALWLILKVDLKGLQALKTTPEEFCKKVGDIYFRTKVGFIVHEIILVADDIDIFNFKEVIWAYVTRHTPVADQMAFDDVTSFPLAPFVSQSSRSKTMKGGKCVTNCIFRQQYERSFDYITCNFEKGYPKGLVDKVNENWKRYGYK
- amount of styrene compared to that of wild type (in words) (styrene production [4]): significantly higher amount of styrene

B3: R1751 (protein, listed as Saccharomyces cerevisiae)
chain: MRKLNPALEFRDFIQVLKDEDDLIEITEEIDPNLEVGAIMRKAYESHLPAPLFKNLKGASKDLFSILGCPAGLRSKEKGDHGRIAHHLGLDPKTTIKEIIDYLLECKEKEPLPPITVPVSSAPCKTHILSEEKIHLQSLPTPYLHVSDGGKYLQTYGMWILQTPDKKWTNWSIAIGMVVDDKHITGLVIKPQHIRQIADSWAAIGKANEIPFALCFGVPPAAILVSSMPIPEGVSESDYVGAILGESVPVVKCETNDLMVPATSEMVFEGTLSLTDTHLEGPFGEMHGYVFKSQGHPCPLYTVKAMSYRDNAILPVSNPGLCTDETHTLIGSLVATEAKELAIESGLPILDAFMPYEAQALWLILKVDLKGLQALKTTPEEFCKKVGDIYFRTKVGFIVHEIILVADDIDIFNFKEVIWAYVTRHTPVADQMAFDDVTSFPLAPFVSQSSRSKTMKGGKCVTNCIFRQQYERSFDYITCNFEKGYPKGLVDKVNENWKRYGYK
- amount of styrene compared to that of wild type (in words) (styrene production [4]): significantly higher amount of styrene
- styrene produced compared to wild type (styrene production [4]): 1.5 times
